Results as given in PMC12051620, “Molecular basis underlying the specificity of an antagonist AA92593 for mammalian melanopsins” (The Journal of Biological Chemistry, 2025).

Experiments:
[1] = dissolution in HBSS assay solution; assay type: physicochemical; conditions: HBSS solution pH 7.4, 0.5% DMSO
Protocol: The transfected COS-1 cells were incubated at 37 °C, 5% CO2 for 2 days, and the medium was aspirated and exchanged with 50 μl of HBSS (145 mM NaCl, 10 mM D-glucose, 5 mM KCl, 1 mM MgCl2, 1.7 mM CaCl2, 1.5 mM NaHCO3, 10 mM Hepes, pH 7.4), containing 33.3, 20, 10, 2, 0.2, 0.02, 0.002, or 0 μM AA92593, 0.5% dimetyl sulfoxide (DMSO), and 4% (vol/vol) GloSensor cAMP reagent stock solution. Under our experimental conditions, >50 μM AA92593 was not fully dissolved in the HBSS solution, and we set maximal concentration of AA92593 (Glixx Laboratories) at 33.3 μM (final concentration of 16.7 μM, see below). Then, the cells were incubated at room temperature for 1 h, and luminescence changes were monitored. After incubation of the cells with AA92593, luminescence measurement was interrupted, the plate was ejected, and the cells were added with 50 μl of HBSS containing 0.2 μM 9-cis-retinal. […] Luminescence was measured using GM-2000 or GM-3510 microplate reader (Promega). Luminescence level of each well was measured every 30 s with integration time of 0.6 to 0.9 s. To illuminate opsins, luminescence measurement was interrupted, the plate was ejected, and the plate was illuminated by white light with CN-160 LED video light (light intensity, ∼9 mW/cm^2) (NEEWER). […] After illumination, luminescence measurement was resumed. […]

human melanopsin = biological target: T1, human melanopsin (Homo sapiens, UniProt Q9UHM6); assay: GsX GloSensor assay with Gsα/i11; assay type: cell-based; parameters: the C-terminal amino acid residues (94, 140, 200, 214, 296, and 308 residues); expressed in transfected cells; host or cells: COS-1; conditions: 16.7 μM AA92593; COS-1 cells
T1 sequence (Q9UHM6 1-384 limits assumed): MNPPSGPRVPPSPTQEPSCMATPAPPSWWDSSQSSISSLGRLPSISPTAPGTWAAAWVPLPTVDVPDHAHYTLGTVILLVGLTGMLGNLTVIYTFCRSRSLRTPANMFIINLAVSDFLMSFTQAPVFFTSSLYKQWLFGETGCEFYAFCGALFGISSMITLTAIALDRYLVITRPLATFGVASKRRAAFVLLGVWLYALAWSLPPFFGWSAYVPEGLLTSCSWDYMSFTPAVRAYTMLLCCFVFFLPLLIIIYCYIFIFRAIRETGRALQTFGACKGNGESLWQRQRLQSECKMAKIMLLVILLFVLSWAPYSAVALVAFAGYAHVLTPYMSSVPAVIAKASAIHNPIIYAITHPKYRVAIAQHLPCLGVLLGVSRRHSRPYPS
Description: Previous studies of human and mouse melanopsins reported that these melanopsins can activate not only Gq but Gs and Gi ([20], [21], [22]). Thus, we assessed the effect of AA92593 on Gsα WT or Gsα/i11 (with 11 C-terminal sequence of Giα) using the GsX GloSensor assay. In agreement with the promiscuous G protein-coupling of melanopsins, we observed light-dependent increase of GloSensor luminescence in COS-1 cells expressing Gsα or Gsα/i11 with human/mouse melanopsins (Fig. 1, G–J).
For GloSensor assay, opsins, GloSensor assay sensor (coded by pGlo-22F), and NanoBiT-tagged G proteins were transiently expressed in COS-1 cells (kindly provided from Dr David Farrens, Oregon Health and Science University) using PEI as described previously ([24], [52]). […] For GFP-fluorescence microscopy, a 35-mm cell culture dish (IWAKI) was transfected with 2 μg melanopsin-GFP plasmid and 8 μg PEI in 400 μl Opti-mem and 1.2 ml D-MEM. […]
The transfected COS-1 cells were incubated at 37 °C, 5% CO2 for 2 days, and the medium was aspirated and exchanged with 50 μl of HBSS (145 mM NaCl, 10 mM D-glucose, 5 mM KCl, 1 mM MgCl2, 1.7 mM CaCl2, 1.5 mM NaHCO3, 10 mM Hepes, pH 7.4), containing 33.3, 20, 10, 2, 0.2, 0.02, 0.002, or 0 μM AA92593, 0.5% dimetyl sulfoxide (DMSO), and 4% (vol/vol) GloSensor cAMP reagent stock solution. […] Luminescence was measured using GM-2000 or GM-3510 microplate reader (Promega). […]

For `COc1ccc(S(=O)(=O)N2CCCCC2)cc1C` [AA92593], the “concentration at which AA92593 was not fully dissolved” value [1] was > 50 µM and the “effect on melanopsin-induced cAMP responses via Gsα/i11” value (human melanopsin) was “can suppress”.
